The source of these data is patent US9144594B2, “Cathepsin L mediated diseases and associated methods and products” (University of Miami, priority 2005, dated 2015).

The test system of this experiment is dynamin-dynamin interactions. Kind of experiment: FLIM analysis of dynamin-dynamin interactions (self-assembly) in podocytes. In kind it is cell-based, mouse. Particulars: in ps. How it is done: In one embodiment the cell-based assay to monitor dynamin-dynamin interactions is performed on a cultured mouse podocyte cell line and the readout of dynamin self-assembly using fluorescence lifetime imaging microscopy (FLIM). FLIM is based on the fluorescence resonance energy transfer (FRET) between the donor and acceptor that shortens the lifetime of the donor if the acceptor distance is within ≈100 Å (10 nm). […] The assay is based on overexpressing dynamin in podocytes, and subsequently staining fixed cells with monoclonal anti-dynamin antibodies that have been conjugated with donor or acceptor florophores. In one embodiment of the invention, Alexa-488 is used as the donor florophore and Alexa-568 is used as the acceptor florophore. In yet another embodiment the donor florophore is dynamin conjugated enhanced-cyan fluorescence protein (ECFP) and the acceptor is dynamin conjugated enhanced yellow-fluorescence protein (EYFP). It will be appreciated by the person of ordinary skill in the art that numerous combinations of FRET donor and acceptors can be used, which are readily available and known. In one embodiment, the FLIM assay is carried out in COS cells and the donor can be selected from the list consisting of: ECFP-WT, ECFP-1690K, ECFP-K44A, ECFP-K694A, and the -acceptor can be selected from the list consisting of: EYFP, EYFP-WT, EYFP-K44A, EYFP-1690K, EYFP-K694A. In yet another embodiment the FLIM assay is performed in podocytes and the donor is GTPase-Alexa488 and the acceptor is selected from the list consisting of: DAM-Alexa568, GTPase-Alexa568, and Hudyl-Alexa568. Cells are stained by mixing both donor and acceptor florophores in equal amounts, and examining the spatially-restricted lifetime shortening in cells detects the localization of dynamin-dynamin interactions in cells. Since dynamin-dynamin interactions are vital for the function of the podocyte, it will be appreciated by the person of ordinary skill in the art that this assay can now be used to screen peptides, small molecules or drugs which can affect these molecular interactions. For example such molecules are cytocholasin D, jasplakinolide, colchisine, dynK44A, dynK694A, dynWT, dynI690K, dynR725A (SEQ ID NO.4), dynL356Q, G358V, (SEQ ID NO.3) any combination thereof, etc.
In order to test the hypothesis that self-assembly of dynamin was protecting its cathepsin L processing in cultured podocytes, dynamin self-assembly in live cells was examined using fluorescence lifetime imaging microscopy (FLIM). FLIM is based on the fluorescence resonance energy transfer (FRET) between the donor and the acceptor that shortens the lifetime of the donor if the acceptor distance is within ≈100 Å (10 nm). […] A FLIM-assay was developed that specifically detects dynamin self-assembly into the higher order structures in podocytes. The assay is based on overexpressing dynamin in podocytes, and subsequently staining fixed cells with monoclonal anti-dynamin antibodies that have been conjugated with either Alexa-488 (donor florophore) or Alexa-568 (acceptor florophore). Cells are stained by mixing both florophores in equal amounts, and examining lifetime of Alexa-488. […] Importantly, FRET only occurred in the vicinity of the membrane. […] Thus, both dominant activating mutants, dynK694A and dynR725A, are impaired for assembly into a supramolecular structures in podocytes under normal conditions. […] Loss of FRET measured FLIM correlates with the loss of p40 proteolytic fragment in cultured podocytes. And presence of p40 in cells expressing dynR725A under normal conditions correlates with the lack of dynR725A assembly detected by FLIM. The opposite is true for the dynWT; lack of p40 under control conditions when FLIM is present, and appearance of the p40 upon LPS treatment with no measurable FRET. […] Finally, proteolytic processing of dynamin after LPS treatment is also observed in vivo. […]

[1] abbreviates: Table 1, donor GTPase-Alexa488, acceptor Hudy1-Alexa568, podocytes overexpressing the dynamin variant.
Setting [2] is: Table 4, donor GTPase-a488, acceptor Hudy1-a568.

Consider “dynWT: wild type dynamin overexpressed by adenovirus or delivered as dynamin 1 cDNA”, for which the “Mean Lifetime (γ1)” value reads like this: under setting [1], 2212 ± 65; (Table 4, donor GTPase-a488, acceptor GTPase-a568) 2423 ± 46; under setting [2], 2254 ± 60.

B1: dynK44A: dominant-negative dynamin mutant that cannot bind GTP (protein, UniProt Q05193 1-864, looked up, variant K44A)
Dynamin-1: MGNRGMEDLIPLVNRLQDAFSAIGQNADLDLPQIAVVGGQSAGASSVLENFVGRDFLPRGSGIVTRRPLVLQLVNATTEYAEFLHCKGKKFTDFEEVRLEIEAETDRVTGTNKGISPVPINLRVYSPHVLNLTLVDLPGMTKVPVGDQPPDIEFQIRDMLMQFVTKENCLILAVSPANSDLANSDALKVAKEVDPQGQRTIGVITKLDLMDEGTDARDVLENKLLPLRRGYIGVVNRSQKDIDGKKDITAALAAERKFFLSHPSYRHLADRMGTPYLQKVLNQQLTNHIRDTLPGLRNKLQSQLLSIEKEVEEYKNFRPDDPARKTKALLQMVQQFAVDFEKRIEGSGDQIDTYELSGGARINRIFHERFPFELVKMEFDEKELRREISYAIKNIHGIRTGLFTPDMAFETIVKKQVKKIREPCLKCVDMVISELISTVRQCTKKLQQYPRLREEMERIVTTHIREREGRTKEQVMLLIDIELAYMNTNHEDFIGFANAQQRSNQMNKKKTSGNQDEILVIRKGWLTINNIGIMKGGSKEYWFVLTAENLSWYKDDEEKEKKYMLSVDNLKLRDVEKGFMSSKHIFALFNTEQRNVYKDYRQLELACETQEEVDSWKASFLRAGVYPERVGDKEKASETEENGSDSFMHSMDPQLERQVETIRNLVDSYMAIVNKTVRDLMPKTIMHLMINNTKEFIFSELLANLYSCGDQNTLMEESAEQAQRRDEMLRMYHALKEALSIIGDINTTTVSTPMPPPVDDSWLQVQSVPAGRRSPTSSPTPQRRAPAVPPARPGSRGPAPGPPPAGSALGGAPPVPSRPGASPDPFGPPPQVPSRPNRAPPGVPSRSGQASPSRPESPRPPFDL
On to B1, for which the “Mean Lifetime (γ1)” value under setting [2] is reported as 2515 ± 43.

B2: dynK694A: dominant activator dynamin mutant impaired in self-assembly (protein)
chain: MGNRGMEDLIPLVNRLQDAFSAIGQNADLDLPQIAVVGGQSAGKSSVLENFVGRDFLPRGSGIVTRRPLVLQLVNATTEYAEFLHCKGKKFTDFEEVRLEIEAETDRVTGTNKGISPVPINLRVYSPHVLNLTLVDLPGMTKVPVGDQPPDIEFQIRDMLMQFVTKENCLILAVSPANSDLANSDALKVAKEVDPQGQRTIGVITKLDLMDEGTDARDVLENKLLPLRRGYIGVVNRSQKDIDGKKDITAALAAERKFFLSHPSYRHLADRMGTPYLQKVLNQQLTNHIRDTLPGLRNKLQSQLLSIEKEVEEYKNFRPDDPARKTKALLQMVQQFAVDFEKRIEGSGDQIDTYELSGGARINRIFHERFPFELVKMEFDEKELRREISYAIKNIHGIRTGLFTPDMAFETIVKKQVKKIREPCLKCVDMVISELISTVRQCTKKLQQYPRLREEMERIVTTHIREREGRTKEQVMLLIDIELAYMNTNHEDFIGFANAQQRSNQMNKKKTSGNQDEILVIRKGWLTINNIGIMKGGSKEYWFVLTAENLSWYKDDEEKEKKYMLSVDNLKLRDVEKGFMSSKHIFALFNTEQRNVYKDYRQLELACETQEEVDSWKASFLRAGVYPERVGDKEKASETEENGSDSFMHSMDPQLERQVETIRNLVDSYMAIVNKTVRDLMPKTIMHLMINNTAEFIFSELLANLYSCGDQNTLMEESAEQAQRRDEMLRMYHALKEALSIIGDINTTTVSTPMPPPVDDSWLQVQSVPAGRRSPTSSPTPQRRAPAVPPARPGSRGPAPGPPPAGSALGGAPPVPSRPGASPDPFGPPPQVPSRPNRAPPGVPSRSGQASPSRPESPRPPFDL
For B2, the “Mean Lifetime (γ1)” value under setting [2] came to 2408 ± 40.

B3: dynR725A: dynamin mutant (SEQ ID NO.4) with impaired GTP hydrolysis capacity (protein, listed as Homo sapiens)
chain: MGNRGMEDLIPLVNRLQDAFSAIGQNADLDLPQIAVVGGQSAGKSSVLENFVGRDFLPRGSGIVTRRPLVLQLVNATTEYAEFLHCKGKKFTDFEEVRLEIEAETDRVTGTNKGISPVPINLRVYSPHVLNLTLVDLPGMTKVPVGDQPPDIEFQIRDMLMQFVTKENCLILAVSPANSDLANSDALKVAKEVDPQGQRTIGVITKLDLMDEGTDARDVLENKLLPLRRGYIGVVNRSQKDIDGKKDITAALAAERKFFLSHPSYRHLADRMGTPYLQKVLNQQLTNHIRDTLPGLRNKLQSQLLSIEKEVEEYKNFRPDDPARKTKALLQMVQQFAVDFEKRIEGSGDQIDTYELSGGARINRIFHERFPFELVKMEFDEKELRREISYAIKNIHGIRTGLFTPDMAFETIVKKQVKKIREPCLKCVDMVISELISTVRQCTKKLQQYPRLREEMERIVTTHIREREGRTKEQVMLLIDIELAYMNTNHEDFIGFANAQQRSNQMNKKKTSGNQDEILVIRKGWLTINNIGIMKGGSKEYWFVLTAENLSWYKDDEEKEKKYMLSVDNLKLRDVEKGFMSSKHIFALFNTEQRNVYKDYRQLELACETQEEVDSWKASFLRAGVYPERVGDKEKASETEENGSDSFMHSMDPQLERQVETIRNLVDSYMAIVNKTVRDLMPKTIMHLMINNTKEFIFSELLANLYSCGDQNTLMEESAEQAQRADEMLRMYHALKEALSIIGDINTTTVSTPMPPPVDDSWLQVQSVPAGRRSPTSSPTPQRRAPAVPPARPGSRGPAPGPPPAGSALGGAPPVPSRPGASPDPFGPPPQVPSRPNRAPPGVPSRSGQASPSRPESPRPPFDL
Turning to B3, the “Mean Lifetime (γ1)” value under setting [1] came out at 2408 ± 128.
